{"source": "patent US11926595B1", "about": "“2-(2-ethoxyethoxy)-6-(4-hydroxyphenyl)-4-(4-methylphenyl)nicotinonitrile as an antimicrobial compound” (KING FAISAL UNIVERSITY, priority 2023, dated 2024)", "key": {"Staphylococcus aureus": {"tested_on": "Staphylococcus aureus", "assay": "Antimicrobial screening by agar dilution, Staphylococcus aureus", "type": "cell-based", "conditions": "after 10, 20, 40 and 60 minutes at all dilutions 1:100, 1:200, 1:400, 1:800", "protocol": "(§1) The antibacterial properties of the synthesized compound 2-(2-ethoxyethoxy)-6-(4-hydroxyphenyl)-4-(4-methylphenyl)nicotinonitrile were studied by the method of agar dilution. Test solutions of each compound was prepared in concentration of 1% using dimethylformamide as a solvent then they are diluted in physiological solution to obtain the final experimental dilutions 1: 100, 1:200, 1:400, 1:800. The effect of these substances are compared with furacillin in a controllable study. The testing microbes used were gram positive bacteria Staphylococcus aureus, gram negative bacteria Pseudomonas aeruginosa and Escherichia coli and Candida albicans fungus. The experiments used for this survey were meat-pentonlu agar (EPA) for cultivation of bacteria and Saburo environment for the fungus. Each experiment used 1 mL of test solution on each plate […]. Two drops of emulsified with microbes feel were added. All experimental samples were taken from the agar after 10, 20, 40, 60 minutes in the environment on the basis of Patrk planted. The bacteria were cultivated at a temperature of 37° C. for 1 day and the mushroom was kept in a thermostat for 2 hours at a temperature of 28° C. Then results were checked."}, "Escherichia coli": {"tested_on": "Escherichia coli", "assay": "Antimicrobial screening by agar dilution, Escherichia coli", "type": "cell-based", "conditions": "after 10, 20, 40 and 60 minutes at all dilutions 1:100, 1:200, 1:400, 1:800", "protocol": "as §1"}, "Pseudomonas aeruginosa": {"tested_on": "Pseudomonas aeruginosa", "assay": "Antimicrobial screening by agar dilution, Pseudomonas aeruginosa", "type": "cell-based", "conditions": "after 10, 20, 40 and 60 minutes at all dilutions 1:100, 1:200, 1:400, 1:800", "protocol": "as §1"}, "Candida albicans": {"tested_on": "Candida albicans", "assay": "Antimicrobial screening by agar dilution, Candida albicans", "type": "cell-based", "conditions": "after 10, 20, 40 and 60 minutes at all dilutions 1:100, 1:200, 1:400, 1:800", "protocol": "as §1"}}, "data": [{"smiles": "CCOCCOc1nc(-c2ccc(O)cc2)cc(-c2ccc(C)cc2)c1C#N", "note": "[2-(2-ethoxyethoxy)-6-(4-hydroxyphenyl)-4-(4-methylphenyl)nicotinonitrile]", "values": [{"measurement": "inhibition activity (summary in words)", "setting": "Staphylococcus aureus", "result": "highest inhibition activity"}, {"measurement": "inhibition activity (summary in words)", "setting": "Escherichia coli", "result": "highest inhibition activity"}, {"measurement": "inhibition activity (summary in words)", "setting": "Pseudomonas aeruginosa", "result": "highest inhibition activity"}, {"measurement": "inhibition activity (summary in words)", "setting": "Candida albicans", "result": "highest inhibition activity"}, {"measurement": "melting point", "result": "175 to 177", "unit": "°C"}]}]}
